Values quoted from earlier work, collected in patent publication US20060051490A1, “Food component and processes for the preparation thereof” (priority 2003, published 2006).

Conditions: for solubility in 100 parts of water: in 100 parts of water at room temperature, approximate

In the case of `CC(=O)O` [Acetic acid, acetic acid], the miscibility with water is listed as “miscible with water in all proportions”.

For `O=C(O)/C=C/C(=O)O` [fumaric, fumaric acid], the “solubility in 100 parts of water” value is listed as ~1.5 parts.

In the case of `CC(O)C(=O)O` (stereo not shown) [lactic acid], the miscibility with water is listed as “miscible with water in all proportions”.

In the case of `O=C(O)CC(O)C(=O)O` (stereo not shown) [malic, malic acid], the “solubility in 100 parts of water” value is listed as ~150 parts.
